Experimental data published in patent publication US20090054332A1, “THOMBOPOIETIN PEPTIDE CONJUGATES” (CONJUCHEM BIOTECHNOLOGIES, INC., priority 2007, published 2009).
Where no end group is shown, it is not given here. Side-chain parts run from the residue outwards. [ ]: non-standard residue; d: D form. The star is where a group is joined. K(MPA) = lysine carrying the MPA reactive group; Propanoyl(3-maleimido) = O=C1C=CC(=O)N1CCC(=O)*; MPA = maleimido propionic acid reactive group; Aoc = NCCCCCCCC(=O)O

Key:
[1] = system: Platelet count; test: In vivo potency: platelet count after a single injection in CD-1 mice; set-up: species or system mouse; details: female CD-1 mice, 10 nmol/kg, 6 days postdose vs prior to dosing, n=4/group
Protocol: Ten to twelve-week old female CD-1 mice were administered with a single injection of the TPO derivatives indicated below at 10 nmol/kg (n=4/group). The DAC™ compounds in Table 4 are variants of TPO peptides modified to include an MPA reactive group, thereby forming an MPA-modified unconjugated peptides. The DAC™ compounds in Table 4 were administered intravenously. Albumin conjugates of the DAC™ compounds (also referred to herein as Preformed Conjugates (PC)) were injected subcutaneously. For each mouse, a blood sample was collected prior to dosing and 6 days postdose via the […]. Platelet counts were measured using an ABC Vet analyzer using standard procedures.
Platelet count fold increases are reported in Table 4 and 5 for MPA-modified TPO peptide and the albumin TPO conjugate, respectively.

[2] = phase I trials, adult and pediatric populations; cited from earlier work
[3] = single subcutaneous injection of preformed albumin conjugate

| Substance | Platelet Count Fold Increase ([1]; single intravenous injection) | other results |
| --- | --- | --- |
| (reactive group)-GGGGG-ARAALWQRLTPGEI-GGGGGGGG-ARAALWQRLTPGEI ({Propanoyl(3-maleimido)}-GGGGGARAALWQRLTPGEIGGGGGGGGARAALWQRLTPGEI) [MPA-modified form of SEQ ID NO: 125, unconjugated DAC compound] | <3 fold | – |
| (reactive group)-GGGGG-ARAALWQRLTPGEI-GGGGGGGG-IEGPTLRQWLAARA ({Propanoyl(3-maleimido)}-GGGGGARAALWQRLTPGEIGGGGGGGGIEGPTLRQWLAARA) [MPA-modified form of SEQ ID NO: 121, unconjugated DAC compound] | <3 fold | – |
| (reactive group)-GGGGG-IEGPTLRQWLAARA-GGGGGGGG-ARAALWQRLTPGEI ({Propanoyl(3-maleimido)}-GGGGGIEGPTLRQWLAARAGGGGGGGGARAALWQRLTPGEI) [MPA-modified form of SEQ ID NO: 117, unconjugated DAC compound] | <3 fold | – |
| (reactive group)-GGGGG-IEGPTLRQWLAARA-GGGGGGGG-IEGPTLRQWLAARA ({Propanoyl(3-maleimido)}-GGGGGIEGPTLRQWLAARAGGGGGGGGIEGPTLRQWLAARA) [MPA-modified form of SEQ ID NO: 168, unconjugated DAC compound] | 5.1 fold | – |
| (reactive group)-GGGGG-IEGPTLRQWLAARA-GGGGGGGG-LQGPTLRAWRAGMA ({Propanoyl(3-maleimido)}-GGGGGIEGPTLRQWLAARAGGGGGGGGLQGPTLRAWRAGMA) [MPA-modified form of SEQ ID NO: 185, unconjugated DAC compound] | <3 fold | – |
| (reactive group)-GGGGG-LQGPTLRAWRAGMA-GGGGGGGG-IEGPTLRQWLAARA ({Propanoyl(3-maleimido)}-GGGGGLQGPTLRAWRAGMAGGGGGGGGIEGPTLRQWLAARA) [MPA-modified form of SEQ ID NO: 184, unconjugated DAC compound] | <3 fold | – |
| Ac-ARAALWQRLTPGEI-GGGGGGGG-ARAALWQRLTPGEI-K(OA-reactive group) (Ac-ARAALWQRLTPGEIGGGGGGGGARAALWQRLTPGEIK([Aoc-Propanoyl(3-maleimido)])) [MPA-modified form of SEQ ID NO: 127, unconjugated DAC compound] | <3 fold | – |
| Ac-ARAALWQRLTPGEI-GGGGGGGG-IEGPTLRQWLAARAI-K(OA-reactive group) (Ac-ARAALWQRLTPGEIGGGGGGGGIEGPTLRQWLAARAIK([Aoc-Propanoyl(3-maleimido)])) [MPA-modified form of SEQ ID NO: 123, unconjugated DAC compound] | <3 fold | – |
| Albumin-conjugate of SEQ ID NO: 168: Preformed albumin conjugate (PC) of the MPA-modified TPO peptide of SEQ ID NO: 168 ({Propanoyl(3-maleimido)}-GGGGGIEGPTLRQWLAARAGGGGGGGGIEGPTLRQWLAARA; also: MPA-linked preformed albumin conjugate, site not given here) | – | Platelet Count Fold Increase [1, 3]: 4.3 fold |
| Albumin-conjugate of SEQ ID NO: 169: Preformed albumin conjugate (PC) of the MPA-modified TPO peptide of SEQ ID NO: 169 (IEGPTLRQWLAARAGGGGGGGGIEGPTLRQWLAARA-{Aoc-Aoc-MPA}; also: MPA-linked preformed albumin conjugate, site not given here) | – | Platelet Count Fold Increase [1, 3]: 3.8 fold |
| Albumin-conjugate of SEQ ID NO: 170: Preformed albumin conjugate (PC) of the MPA-modified TPO peptide of SEQ ID NO: 170 (IEGPTLRQWLAARAGGGGGGGGIEGPTLRQWLAARAK[Aoc]; not fully specified; printed as IEGPTLRQWLAARA-GGGGGGGG-IEGPTLRQWLAARA-K-OA-; also: MPA-linked preformed albumin conjugate, site not given here) | – | Platelet Count Fold Increase [1, 3]: 4.4 fold |
| IEGPTLRQWLAARA-GGGGGGGG-IEGPTLRQWLAARA-(OA)-K-(reactive group) (IEGPTLRQWLAARAGGGGGGGGIEGPTLRQWLAARA-{Aoc-K(MPA)}) [MPA-modified form of SEQ ID NO: 190, unconjugated DAC compound] | 5.0 fold | – |
| IEGPTLRQWLAARA-GGGGGGGG-IEGPTLRQWLAARA-K-OA-OA-(reactive group) (IEGPTLRQWLAARAGGGGGGGGIEGPTLRQWLAARAK-{Aoc-Aoc-MPA}; not fully specified) [MPA-modified form of SEQ ID NO: 170, unconjugated DAC compound] | 4.7 fold | – |
| IEGPTLRQWLAARA-GGGGGGGG-IEGPTLRQWLAARA-OA-OA-K-(reactive group) (IEGPTLRQWLAARAGGGGGGGGIEGPTLRQWLAARA-{Aoc-Aoc-K(MPA)}) [MPA-modified form of SEQ ID NO: 169, unconjugated DAC compound] | 4.4 fold | – |
| LQGPTLRAWRAGMA-GGGGGGGG-IEGPTLRQWLAARA-(OA)-K-(reactive group) (LQGPTLRAWRAGMAGGGGGGGGIEGPTLRQWLAARA-{Aoc-K(MPA)}) [MPA-modified form of SEQ ID NO: 191, unconjugated DAC compound] | <3 fold | – |
| rhTPO: full length, glycosylated molecule known as recombinant human thrombopoietin | – | Safety of administration [2]: safe administration |
